The test system of one assay is E. coli. The assay can be described thus: Fluorescence response to an electric field in a mixed culture in the presence of vancomycin (FIG. 6). The class given is cell-based, Escherichia coli. Particulars: E. coli cells in mixed culture with B. subtilis in the presence of vancomycin; trace 602 of FIG. 6. An excerpt: (§1) In an experimental setup, bacterial cells were inoculated on agarose pads and placed on the electrode surface, enabling monitoring of cells at single-cell resolution by microscopy. The membrane potential dynamics of cells was monitored using the fluorescent Nernstian indicator dye, Thioflavin T (ThT), which has been used extensively with bacteria.
When a series of electrical pulses (±1.5 V AC 0.1 kHz for 2.5 seconds) were applied to E. coli (K12 strain) cells placed in the electrode gaps, the pulses caused hyperpolarization (seen by an increase of ThT fluorescence signal) in vital cells. FIG. 3 illustrates the effect of applying an electric field across a sample 304 as viewed between a pair of opposing electrodes 301, 302 in an apparatus of the type illustrated in FIG. 1. […] An electric field was then applied, and the image shown represents the difference in fluorescence over a period of time after the application of the electric field. […] This provides a clear indication that the change in fluorescence is an indication of the vitality of cells within the sample.
(§2) In the mixed culture. […] The presence of E. coli or other coliforms could therefore be confirmed through fluorescence analysis of a sample treated with a selective antibiotic such as vancomycin.

For another assay, the system named is B. subtilis. The assay is described as above. The class given is cell-based, Bacillus subtilis. Particulars: vancomycin treated B. subtilis cells in mixed culture with E. coli; trace 601 of FIG. 6.
Source text: as §1
The sample (shown in FIG. 3) was subjected to alternating 3V pulses at a frequency of 100 Hz for 2.5 seconds. The mean response 501 of ten UV-treated cells is shown in FIG. 5 alongside the mean response 502 of ten non-UV-treated cells.
as §2

For the molecule `CN[C@H](CC(C)C)C(=O)N[C@H]1C(=O)N[C@@H](CC(N)=O)C(=O)N[C@H]2C(=O)N[C@H]3C(=O)N[C@H](C(=O)N[C@H](C(=O)O)c4cc(O)cc(O)c4-c4cc3ccc4O)[C@H](O)c3ccc(c(Cl)c3)Oc3cc2cc(c3O[C@@H]2O[C@H](CO)[C@@H](O)[C@H](O)[C@H]2O[C@H]2C[C@](C)(N)[C@H](O)[C@H](C)O2)Oc2ccc(cc2Cl)[C@H]1O` [vancomycin], the figures for the “log of a fluorescent response (membrane potential change)” value with E. coli and in the assay on B. subtilis were “hyperpolarized” and “depolarization”, respectively.

Values taken from patent US20210172002A1, “DETECTING CELL VITALITY” (THE UNIVERSITY OF WARWICK, priority 2018, published 2021).
